# Results published in patent publication US11826333B2, “Bactericidal debridement compositions for surgical site infections and chronic wound healing” (DePuy Synthes Products, Inc., priority 2020, dated 2023).
# How the values were obtained:
# [1] = test system: MRSA; conditions: literature, Jennings et al. 2012; cited from earlier work
# [2] = test system: biofilms; conditions: literature, Davies & Marques 2009; cited from earlier work
# [3] = test system: mature biofilms of S. aureus (ATCC 25923); assay: CDA dispersant effect on mature biofilms; type: cell-based; conditions: CDA ~0.05 ppm, 310 nM
# Description: (§1) In the following examples, unless otherwise noted, testing was conducted on mature biofilms of S. aureus (ATCC 25923) that were grown for 48 hours. An exemplary preparation of the biofilm is as follows: • Prepare an overnight bacterial inoculum of S. aureus at a concentration of 10^9 CFU/mL in 20 mL in commercial Tryptic Soy Broth (TSB) by incubating at 37° C. shaker at 250 rpm; • Take an OD600 reading of a diluted stock of overnight culture to determine stock concentration with the absorbance method; • Adjust the concentration of bacteria to 10^5 CFU/mL using 0.3% (w/v) TSB forcibly aspirating up and down to break up clumps of colonies with a serological pipette from the stock concentration; • Plate the following dilutions in triplicates on TSA-L plates to determine the initial stock concentration of cells: 10^2 CFU/mL; • Add 7 mL of inoculum into each 15 ml tube containing K-wire using a serological pipette, making sure to again forcibly aspirate up and down prior to addition; • Place the tubes on the revolver at 30° C.; • After 8 hours, unscrew the caps and transfer the caps with sutures to a new tube with 7 mL of 0.3% TSB and incubate in the shaker-incubator for an additional 44 hours to grow the biofilm at 40 RPM growing; • During this time, change the media 2 times per day by unscrewing the cap and transferring to a new tube with 7 mL TSB.
# [4] = test system: S. aureus (ATC 25923) biofilm grown for 48 hours on K-wires; assay: 1 hour CDA/cefazolin exposure of debrided or full biofilm on K-wires (Example 3); type: cell-based; conditions: debrided biofilm; for Avg. Log CFU, K-Wire Testing / Avg. Log CFU, Well Testing: 21° C.; for Reduction (log CFU), K-Wire Testing / Reduction (log CFU), Well Testing: vs debrided biofilm control
# Description: The goal of this study was to determine whether the combination of CDA and Cefazolin can act quickly on a debrided contaminated wound site with an adjuvant killing effect of CDA and a therapeutic drug concentration. The biofilm was grown at 30° C. and the same 0.3% (w/v) media used in previous studies was used in this study. The biofilm was grown for 48 hours, then underwent a mechanical “debridement” process. This debridement was done to simulate the debridement of an infected wound site. After the physical removal of visual biofilm, the K-wires were exposed to 400 ppm CDA, 10 ppm cefazolin, or a combination of both, for one hour (in contrast to the previous studies where exposure was for 24 hrs). Separately, a test was conducted on an untreated biofilm (i.e., not debrided) using a higher concentration of CDA, approximately 800 ppm. This concentration of CDA was determined to be the MIC value for ATC 25923 planktonic cells as noted above in the previous example.
# The contents of the wells and bacteria on the K-wires were diluted and plated to determine CFU/mL. Briefly, the K-wires were secured to tube caps and placed in tubes incubated with an initial inoculum concentration (10^5 CFU/mL) and grown for 24-48 hours. Media was changed roughly every 8 hours. After growth, the biofilms were exposed to a combination of CDA and cefazolin for 60 minutes.
# After exposure time was completed, both the well samples and the debrided K-wires were treated, and the remaining bacteria cells were plated and counted. For the media in the wells, samples were centrifuged for 10 minutes at 3000 rpm and the supernatant was removed. The cells were resuspended in 10 mL 1×PBS buffer. This washing step was repeated for a second time and the cells resuspended again in a final volume of 1.5 mL neutralizing buffer, diluted and plated on Tryptic Soy Agar with Lectin (TSA-L) agar plates. For the K-wires, the caps securing the K-wires in the tubes were removed and transferred to tubes with 10 mL 1×PBS and the tubes were inverted. The cap with the K-wires were transferred again to another tube with PBS and the step was repeated. After washing the K-wires 2×, they were transferred to tubes with neutralizing buffer and vortexed followed by ultra-sonication for 10 minutes. The cells were then diluted and plated on TAS-L agar plates.
# Prepare an overnight bacterial inoculum of S. aureus at a concentration of 10^9 CFU/mL in 20 mL in commercial TSB by incubating at 37° C. shaker at 250 rpm.
# Adjust the concentration of bacteria to 10^5 CFU/mL using 0.3% (w/v) TSB making sure to forcibly aspirate up and down to break up clumps of colonies with a serological pipette from the stock concentration.
# Add 7 mL of inoculum into each 15 ml tube containing K-wire using a serological pipette, making sure to again forcibly aspirate up and down prior to addition.
# After 8 hours, unscrew the caps and transfer the caps with sutures to a new tube with 7 mL of 0.3% TSB and incubate in the shaker-incubator for an additional 44 hours to grow the biofilm at 40 RPM growing.
# During this time, change the media 2× per day by unscrewing the cap and transferring to a new tube with 7 mL TSB. After 48 hours of growth, proceed with debridement of the biofilm and exposure.
# Transfer the K-wires in new tubes containing 10 mL of 1×PBS, invert it two times and repeat the same step with one more PBS wash by inverting 2 times for a total of 2 washes.
# Transfer caps with debrided biofilm to a new tube containing 10 mL of 0.1% TSB with DMSO only.
# Transfer caps with debrided biofilm to a new tube containing 10 mL of 0.1% TSB+400 ppm concentration of CDA+5% DMSO.
# Transfer caps with debrided biofilm to a new tube containing 10 mL of 0.1% TSB+10 ppm concentration of cefazolin.
# Transfer caps with debrided biofilm to a new tube containing 10 mL of 0.1% TSB+10 ppm concentration of cefazolin+400 ppm CDA+5% DMSO. […]
# [5] = test system: planktonic S. aureus; assay: CDA effect on planktonic bacteria (visual MIC test and follow-up plating); type: cell-based
# Description: As an additional test, several different CDA concentrations (800 ppm, 400 ppm, 200 ppm, 100 ppm, 50 ppm, 25 ppm, 12.5 ppm, and 6.25 ppm) were placed in vials including planktonic S. aureus. The vials can be seen in FIG. 3A. Two controls are on the right and unlabeled (bacteria/no fatty acid and no fatty acid/no bacteria, respectively). […] This test was qualitative and was based on whether there was observable bacteria in the test vials. In FIG. 3A, it can be seen that only the test vial containing 800 ppm CDA contains clear fluid, while the other tubes are all cloudy indicating active presence of bacteria.
# Thus, even at an MIC of 800 ppm, CDA was not shown to be bactericidal but rather bacteriostatic with respect to planktonic bacteria.
# [6] = test system: S. aureus (ATCC 25923) biofilms grown for 48 hrs; assay: CDA dose response on mature biofilms (Example 1); type: cell-based; conditions: CDA at 200 ppm or greater in 5% DMSO; 24 hours exposure; 48 h biofilm
# Description: as §1, with “TSB. […]” for “TSB.”
# [7] = test system: P. aeruginosa, E. coli, K pneumoniae, Proteus mirabilis, Streptococcus pyogenes, B. subtilis, S. aureus, and the yeast C. albicans; conditions: literature, Rabin et al. 2015; many species of bacteria and across kingdom; cited from earlier work
# [8] = test system: mature biofilms of S. aureus (ATCC 25923) grown for 48 hours on K-wires; assay: CDA + antibiotics on K-wires having mature biofilms (Example 2); type: cell-based; conditions: 400 ppm CDA adjuvant in combination with the named antibiotic; 48 h biofilm
# Description: as §1
# New K-wires were roughened with #600 sandpaper (˜10× along the length) followed by rinsing with deionized water. The rinsed K-wires were then completely immersed in a 10% citric acid (w/v) bath at ˜49° C. for 20 minutes to passivate the surface of the stainless steel to prevent subsequent corrosion. After removal from the bath, the K-wires were then rinsed with deionized water. The K-wires were then washed and sterilized by autoclaving.
# K-wires were secured to tube caps and placed in tubes incubated with an initial inoculum concentration (10^5 CFU/mL) and grown for 24-48 hours. Media was changed roughly every 8 hours. After growth, the inoculated K-wires were ready for testing.
# After exposure time is completed, both the well samples and the debrided K-wires are treated, and remaining bacteria cells are plated and counted. For the media in the wells, samples are centrifuged for 10 minutes at 3000 rpm and the supernatant is removed. The cells are resuspended in 10 mL 1×PBS buffer. This washing step is repeated for a 2nd time and the cells resuspended again in a final volume of 1.5 mL neutralizing buffer, diluted and plated on Tryptic Soy Agar with Lectin (TSA-L) agar plates. For the K-wires, the caps securing the K-wires in the tubes are removed and transferred to tubes with 10 mL 1×PBS and the tubes are inverted. The caps with the K-wires are transferred again to another tube with PBS and the step repeated. After washing the K-wires 2 times, they are transferred to tubes with neutralizing buffer and vortexed followed by ultra-sonication for 10 minutes. The cells are then diluted and plated on TSA-L agar plates.
# Following growth, biofilms were washed and treated with the fatty acid and/or antimicrobials to determine dose-response and adjuvant effects. After this time, the wells of the samples were diluted and plated to determine dispersion levels compared to controls. The K-wires were washed, sonicated to remove any residual cells, and the samples were plated to determine CFU/mL.
# [9] = test system: Staphylococcus aureus; conditions: literature, Stenz et al.; by inhibiting bacterial adhesion; cited from earlier work
# [10] = test system: Xanthomonas campestris; conditions: literature, Dow et al. 2003; cited from earlier work
# [11] = test system: mature biofilms of S. aureus (ATCC 25923); assay: Systemic gentamicin testing on mature biofilms; type: cell-based; conditions: approximately 10 ppm (10 mcg/ml) gentamicin; data not shown
# Description: as §1, with “TSB. […]” for “TSB.”
compound,measurement,setting,value
"CCCCCCC/C=C\C(=O)O [CDA, cis-2-decenoic acid]",concentration that inhibited biofilm formation,[1],125 ppm
same,concentration that inhibited the growth of MRSA,[1],≥ 500 ppm
same,lowest concentration able to disperse biofilms,[2],about 2.5 nM
same,dispersion of biofilm,[3],no observed dispersion
same,"Avg. Log CFU, K-Wire Testing",[4]; 400 ppm CDA + 5% DMSO,7.8 Log CFU
same,"Avg. Log CFU, Well Testing",[4]; 400 ppm CDA + 5% DMSO,5.6 Log CFU
same,"Reduction (log CFU), K-Wire Testing",[4]; 400 ppm CDA + 5% DMSO,1.6
same,"Reduction (log CFU), Well Testing",[4]; 400 ppm CDA + 5% DMSO,0.6
same,growth in the tube,"[5]; 400 ppm CDA, planktonic S. aureus",visible growth
same,bacteriostatic or bactericidal,"[5]; 800 ppm CDA, 10 μL plated on TSA-L agar after 24 hours incubation","bacteriostatic, not bactericidal"
same,MIC,"[5]; Staphylococcus aureus, planktonic cells, qualitative, clear vs cloudy vials, read-out: minimum inhibitory concentration (MIC)",800 µg/mL
same,log reduction in CFU,[6],greater than 4 log
same,effect on established biofilms,[7],disperse established biofilms
"Cc1nnc(SCC2=C(C(=O)O)N3C(=O)[C@@H](NC(=O)Cn4cnnn4)[C@H]3SC2)s1 [Cef, cefazolin]",log reduction of bacteria in the wells,[8],7.8 log
same,log reduction of bacteria on the medical device (K-wires),[8],5.9 log
same,"Avg. Log CFU, K-Wire Testing",[4]; 10 ppm cefazolin,8.5 Log CFU
same,"Avg. Log CFU, Well Testing",[4]; 10 ppm cefazolin,5.4 Log CFU
same,"Reduction (log CFU), K-Wire Testing",[4]; 10 ppm cefazolin,0.9
same,"Reduction (log CFU), Well Testing",[4]; 10 ppm cefazolin,0.8
"CCCCCCCC/C=C\CCCCCCCC(=O)O [Oleic acid, cis-9-octadecanoic acid]",effect on biofilm formation,[9],repress biofilm formation
CC(C)CCCCCCC/C=C\C(=O)O [cis-11-methyl-2-dodecenoic acid],effect on cell flocs,[10],disaggregate cell flocs
CN[C@H](CC(C)C)C(=O)N[C@H]1C(=O)N[C@@H](CC(N)=O)C(=O)N[C@H]2C(=O)N[C@H]3C(=O)N[C@H](C(=O)N[C@H](C(=O)O)c4cc(O)cc(O)c4-c4cc3ccc4O)[C@H](O)c3ccc(c(Cl)c3)Oc3cc2cc(c3O[C@@H]2O[C@H](CO)[C@@H](O)[C@H](O)[C@H]2O[C@H]2C[C@](C)(N)[C@H](O)[C@H](C)O2)Oc2ccc(cc2Cl)[C@H]1O [vancomycin],log reduction of bacteria in the wells,[8],5.3 log
same,log reduction of bacteria on the medical device (K-wires),[8],4.7 log
gentamicin,log reduction of bacteria in the wells,[8],6.3 log
same,log reduction of bacteria on the medical device (K-wires),[8],4.9 log
same,response of mature biofilms to gentamicin doses,[11],resistant
